Data reported in PMC11079024, “Identification of a family of species-selective complex I inhibitors as potential anthelmintics” (Nature Communications, 2024).
“And” between values parts separate entries of the source, which are not always exact repeats. Identical values can stand only once. Like-named read-outs stand apart in the source and are kept apart here.

What was measured:
[1] = system: ben-1 mutant (ECA882) C. elegans; assay: microbe, parasite or virus in culture; conditions: Caenorhabditis elegans
Description: Liquid development and viability assays were adapted from a previously established chemical screening protocol (Burns et al.)[24]. In brief, a saturated culture of E. coli HB101 was concentrated 2-fold in liquid NGM and 40 μL of this suspension was distributed to each well of a 96-well flat-bottom culture plate. 0.5 μL chemical solution (or DMSO alone) was added to each well (1% DMSO v/v) using either a multi-channel pipette or a pinning tool (V&P Scientific). L1 worms synchronized from an embryo preparation performed the day prior were diluted to a concentration of ~2 worms/μL in M9 buffer; 10 μL worm suspension was then added to each well. Culture plates were sealed with parafilm and placed in a plastic container lined with wet paper towels to prevent evaporation. Containers were then incubated for 6 days at 20 °C with shaking at 165 rpm. Following incubation, 300 μL M9 was added to each well to decrease the turbidity of the HB101-NGM suspension. Single images of each microplate well were then taken on a Nikon Ti Eclipse inverted microscope (Nikon NIS Elements AR). Images were processed using Python scripts to isolate worm-associated pixels from background. Scores of worm development and viability were determined as the sum of worm-associated pixels in each well. Development/viability scores for each well were divided by the development /viability scores for the corresponding DMSO controls, resulting in a relative viability value for each chemical. At least three biological replicates were performed for each dose-response experiment; relative viability values were averaged across replicates. […]
anthelmintics. a. Chemical structures of four commercial benzimidazole anthelmintics (e.g., albendazole, […]
Dose response of four commercial […]
elegans strains: N2, wild type; ECA882, deletion (ben-1); ECA917, F200Y (ben-1); ECA1075, F167Y (ben-1); ECA1080, E198A (ben-1); CB3474, G104D (ben-1). The colour-coded scale denotes the phenotypic outcome of drug treatment (e.g., motility or viability) relative to DMSO controls; white/pale- […]
death and arrested development. c. […]
benzimidazole anthelmintics (blue) were conducted in C. elegans development and viability assays for wild type (N2) and ben-1 mutant (ECA882) C. elegans (see Supplementary Date File 1).
All data used for generation of dose-response curves is the mean of at least three […]
Supplementary Figure 7 (continued). Davie et al.

[2] = biological target: C. elegans (N2) complex I (NADH:ubiquinone oxidoreductase) (Caenorhabditis elegans, UniProt P24887+Q93873+Q94360); assay: biochemical; type: biochemical; conditions: for Log IC50 C. elegans complex I: log10 of IC50 in µM
Sequence of C. elegans (N2) complex I (NADH:ubiquinone oxidoreductase) (Q94360 17-199): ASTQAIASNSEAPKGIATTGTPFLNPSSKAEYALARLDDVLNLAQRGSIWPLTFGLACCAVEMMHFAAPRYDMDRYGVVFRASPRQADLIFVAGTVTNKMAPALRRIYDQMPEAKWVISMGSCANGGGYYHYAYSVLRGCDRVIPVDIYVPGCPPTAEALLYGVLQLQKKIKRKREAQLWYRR
Sequence of C. elegans (N2) complex I (NADH:ubiquinone oxidoreductase) (P24887 whole entry): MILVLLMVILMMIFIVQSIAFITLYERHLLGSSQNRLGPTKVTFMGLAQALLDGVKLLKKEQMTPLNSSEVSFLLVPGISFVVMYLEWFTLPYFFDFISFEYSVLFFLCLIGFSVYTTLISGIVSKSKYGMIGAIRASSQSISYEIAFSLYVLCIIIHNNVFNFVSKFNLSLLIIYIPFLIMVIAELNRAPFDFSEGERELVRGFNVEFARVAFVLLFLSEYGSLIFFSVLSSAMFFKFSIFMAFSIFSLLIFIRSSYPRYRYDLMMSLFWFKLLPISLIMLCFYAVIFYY
Sequence of C. elegans (N2) complex I (NADH:ubiquinone oxidoreductase) (Q93873 31-482): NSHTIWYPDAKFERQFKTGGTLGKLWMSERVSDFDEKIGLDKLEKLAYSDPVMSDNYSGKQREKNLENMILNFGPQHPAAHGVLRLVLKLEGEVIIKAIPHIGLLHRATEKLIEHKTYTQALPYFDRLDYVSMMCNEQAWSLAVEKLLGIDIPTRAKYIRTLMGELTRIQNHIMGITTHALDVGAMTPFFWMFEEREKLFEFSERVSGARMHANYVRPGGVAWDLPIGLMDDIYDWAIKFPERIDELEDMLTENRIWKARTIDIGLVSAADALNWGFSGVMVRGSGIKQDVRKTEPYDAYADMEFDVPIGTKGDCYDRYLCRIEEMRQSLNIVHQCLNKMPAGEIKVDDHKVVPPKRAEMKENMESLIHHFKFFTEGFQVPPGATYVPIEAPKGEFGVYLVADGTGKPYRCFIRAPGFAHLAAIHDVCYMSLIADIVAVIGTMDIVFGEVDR
Description: (§1) Mitochondria were isolated from the following free-living nematode strains: C. elegans—N2, CB3474, ECA882, ECA917, ECA1075, ECA1080; C. briggsae—AF16; P. pacificus—PS312; and P. hermaphrodita—B178. With the exception of the P. hermaphrodita strain B178, adult worms of each strain were grown in bulk through liquid culture to obtain mitochondria in sufficient quantities. Due to poor growth in liquid media, mixed stage populations of P. hermaphrodita were washed off and collected from NGM plates seeded with OP50. The isolation of mitochondria from all free-living nematode strains followed the protocol previously outlined in Burns et al.[24]. In brief, a 1 L saturated culture of E. coli HB101 was concentrated 20-fold in 50 mL complete S-medium. ~500,000 L1 worms synchronized from an embryo preparation performed the day prior were added to the S-media/HB101 suspension and grown to adulthood over the course of 3.5 days at 20 °C with shaking at 165 rpm. Following growth, worms were collected in 10 ×15 mL conical tubes and washed 7 times in M9 buffer. Worm suspensions were then combined into a single 15 mL conical tube and diluted to a final volume of 15 mL with M9 buffer. 1 mL aliquots of worm suspension were then distributed to 15 × 1.5 mL screw-cap microcentrifuge tubes and were pelleted at 500 g for 1 min. Excess M9 was aspirated without disturbing the worm pellet. 600 μL ice-cold isolate buffer A (250 mM sucrose, 10 mM Tris (pH 7.5), 1 mM EDTA, 1 mM PMSF (freshly prepared)) and 300 μL cold glass beads were then added to each tube. Tubes were incubated on ice for 10 min, and the worms were then lysed by bead beating (6 x 30 s, with 1 min cooling intervals). Tubes containing worm lysate were centrifuged at 1,000 g for 10 min at 4 °C and the supernatant was transferred to 15 new microcentrifuge tubes on ice. The tubes were centrifuged a second time at 1,000 g for 10 min at 4 °C and the supernatant was once again transferred to 15 new microcentrifuge tubes on ice. These tubes were then centrifuged at 16,000 g for 10 min at 4 °C. The resulting mitochondrial pellet was washed twice by re-suspension in 300 μL of ice-cold isolate buffer B (250 mM sucrose, 10 mM Tris (pH 7.5), 1 mM EDTA). Following the final wash, isolation buffer was aspirated from each tube and the pellets were flash-frozen in ethanol/dry ice and stored at −80 °C until needed.
(§2) The enzymatic activities of individual ETC complexes (I-IV) were assessed spectrophotometrically in isolated mitochondria using a Varioskan LUX Multimode plate reader (ThermoFisher Scientific). Mitochondrial pellets previously isolated were thawed on ice and resuspended in ice-cold isolation buffer (250 mM sucrose, 10 mM Tris (pH 7.5), 1 mM EDTA). The BCA assay (Walker, 1994) was used to quantify the protein concentration of mitochondria suspensions; solutions were diluted to a concentration of 0.2 mg/mL for use in all assays. For the complex I assay, mitochondria pellets were freeze-thawed on ice three times to increase enzyme accessibility. […] 20 μL mitochondria suspension was then added/mixed with a pipette to initiate the reaction. Immediately following the addition of mitochondria, absorbance was measured (complex I and II: 600 nm; complex III and IV: 550 nm) in 30 s intervals over 15 min. Enzymatic activity was determined in each reaction by plotting absorbance versus time and calculating the slope of the curve during the initial linear phase of the reaction. […] Percent activity of each complex was calculated by dividing the enzyme-specific activity of each well by the enzyme-specific activity of the corresponding solvent controls.
Chemical solutions were prepared in complex I assay buffer composed of 25 mM KPi buffer (pH 7.5), 3 mg/mL bovine serum albumin (BSA), 80 μM NADH, 60 μM decylubiquinone, 160 μM DCIP, 2 μM antimycin A and 2 mM KCN.
For preliminary screens of hit compounds, compounds were screened at 100 μM; data are the average of at least three biological replicates.

[3] = system: L1 wild-type C. elegans; conditions: […]; for Relative Motility: relative to DMSO controls, single biological replicate
[4] = system: L1 wild-type C. elegans; assay: microbe, parasite or virus in culture; conditions: Caenorhabditis elegans, read-out: C. elegans KCN Survival Assay LC50, estimated from fitted dose-response curves; mean of at least two biological replicates
[5] = biological target: C. elegans complex II (succinate dehydrogenase) (Caenorhabditis elegans, UniProt O62215+P41956+Q09545); assay: In vitro complex II activity assay, C. elegans mitochondria; type: biochemical
Sequence of C. elegans complex II (succinate dehydrogenase) (P41956 30-182): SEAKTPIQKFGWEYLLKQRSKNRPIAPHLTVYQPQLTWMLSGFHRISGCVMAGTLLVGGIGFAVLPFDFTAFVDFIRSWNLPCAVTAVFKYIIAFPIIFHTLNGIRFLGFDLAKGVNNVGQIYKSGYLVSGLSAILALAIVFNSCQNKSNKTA
Sequence of C. elegans complex II (succinate dehydrogenase) (Q09545 22-298): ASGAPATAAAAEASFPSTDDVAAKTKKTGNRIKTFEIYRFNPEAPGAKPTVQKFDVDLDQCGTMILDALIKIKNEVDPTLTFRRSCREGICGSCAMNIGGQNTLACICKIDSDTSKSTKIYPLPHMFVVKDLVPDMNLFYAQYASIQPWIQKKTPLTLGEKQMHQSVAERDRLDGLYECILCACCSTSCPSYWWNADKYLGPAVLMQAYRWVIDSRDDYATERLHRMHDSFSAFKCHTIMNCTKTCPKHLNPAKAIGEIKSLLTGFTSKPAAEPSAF
Sequence of C. elegans complex II (succinate dehydrogenase) (Q09508 32-646, further chain): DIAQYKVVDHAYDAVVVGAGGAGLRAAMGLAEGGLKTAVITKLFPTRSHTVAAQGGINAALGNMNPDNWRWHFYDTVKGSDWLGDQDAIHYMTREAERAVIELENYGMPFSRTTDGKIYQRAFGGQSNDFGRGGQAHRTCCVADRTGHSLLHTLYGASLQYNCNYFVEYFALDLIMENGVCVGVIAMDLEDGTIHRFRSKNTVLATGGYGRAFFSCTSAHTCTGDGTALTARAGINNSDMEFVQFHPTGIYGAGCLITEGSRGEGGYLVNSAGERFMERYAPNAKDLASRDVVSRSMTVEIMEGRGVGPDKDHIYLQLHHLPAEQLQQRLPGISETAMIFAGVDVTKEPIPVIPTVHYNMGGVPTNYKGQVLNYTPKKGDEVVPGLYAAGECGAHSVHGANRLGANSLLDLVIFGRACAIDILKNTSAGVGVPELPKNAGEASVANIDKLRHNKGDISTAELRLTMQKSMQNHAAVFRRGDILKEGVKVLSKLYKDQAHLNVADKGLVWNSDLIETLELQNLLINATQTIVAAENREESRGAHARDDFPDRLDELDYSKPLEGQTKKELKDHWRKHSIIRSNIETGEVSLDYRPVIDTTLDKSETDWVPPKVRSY
Sequence of C. elegans complex II (succinate dehydrogenase) (O62215 31-145): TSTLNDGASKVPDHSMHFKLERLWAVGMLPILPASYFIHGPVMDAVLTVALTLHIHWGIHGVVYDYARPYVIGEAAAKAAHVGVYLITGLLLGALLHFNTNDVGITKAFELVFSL
Description: as §1, §2
Complex II (succinate dehydrogenase) activity was assessed using the DCIP-coupled method previously described in Burns et al.[24].
For preliminary screens of hit compounds, compounds were screened at 100 μM; data are the average of at least three biological replicates. The complex I and II activity assays were used for additional dose-response experiments.

[6] = system: C. elegans complex III (decylubiquinol-cytochrome C reductase); assay: In vitro complex III activity assay, C. elegans mitochondria; type: biochemical, Caenorhabditis elegans; conditions: for CIII Activity: 100 μM inhibitor, in vitro activity relative to solvent control, N2 C. elegans mitochondria
Description: as §1, §2
Antimycin A-sensitive complex III (decylubiquinol-cytochrome C […]) activity was determined by measuring the reduction of cytochrome C (CytC) as optimized in Luo et al.[59]. Decylubiquinol for complex III assays was prepared fresh as described in Janssen and Boyle, 2019[60].

[7] = system: C. elegans complex IV (cytochrome C oxidase); assay: In vitro complex IV activity assay, C. elegans mitochondria; type: biochemical, Caenorhabditis elegans; conditions: for CIV Activity: 100 μM inhibitor, in vitro activity relative to solvent control, N2 C. elegans mitochondria
Description: as §1, §2
Complex IV (cytochrome C oxidase) activity was determined by following the oxidation of CytC in the protocol outlined by Janssen and Boyle, 2019[60]. Reduced CytC was prepared fresh by adding 1 μL increments of 1 M dithiothreitol to a 1 mM solution of CytC and vortexing. A colour change from brown to orange/pink signals when CytC has been reduced.

[8] = read-out: C. elegans (ben-1) Development & Viability Assay LC50
[9] = read-out: C. elegans ben-1 log10 LC50 (converted)
[10] = in vitro complex I dose response on C. elegans mitochondria, average of at least two biological replicates, fit in R (DRC), read-out: IC50 C. elegans complex I
[11] = wild-type C. elegans mitochondria, read-out: C. elegans Complex I IC50
[12] = 50 μM compound, hit = relative motility below 0.25 3 hours after removal of KCN
[13] = 50 μM compound, worm motility 3 hours after removal of KCN
[14] = 100 μM of NPD compound, C. elegans mitochondria, individual biological replicates, 100 µM
[15] = 100 µM compound, relative to solvent control, mean (SEM)
[16] = 100 μM of NPD compound, C. elegans mitochondria, individual biological replicates
[17] = 100 μM of NPD compound, C. elegans mitochondria, mean of four biological replicates
[18] = wild-type C. elegans mitochondria, estimated from fitted dose-response curves, read-out: C. elegans Complex I IC50

SMILES	LC50 [1, 8] [µM]	LC50 [1, 9] [µM]	IC50 [2, 10] [µM]	Log IC50 C. elegans complex I ([2]; C. elegans mitochondria) [µM]	IC50 [2, 11] [µM]	Screen "Hit" [3, 12]	Relative Motility [3, 13]	LC50 [4] [µM]	IC50 [2, 18] [µM]	other results
CCc1ccc(CNc2nc3ccccc3n2C)cc1 [STK498539]	214	214	40.8	1.61	40.8	Y (hits were identified as compounds that reduced relative motility below 0.25 (75% reduction))	0.042	30.5	–	–
CCCCCC[C@H]1C(=O)O[C@H](C)[C@H](NC(=O)c2cccc(NC=O)c2O)C(=O)O[C@@H](C)[C@@H]1OC(=O)CC(C)C [Antimycin A, reference compound]	–	–	–	–	–	–	–	–	–	activity at 100 µM ([2]; 100 µM compound, relative to solvent control, mean (SEM), read-out: % Activity Complex I): 117%; activity at 100 µM ([2]; 100 μM inhibitor, in vitro activity relative to solvent control, N2 C. elegans mitochondria, Mean, read-out: CI Activity): 117%; activity at 100 µM ([2]; 100 μM inhibitor, in vitro activity relative to solvent control, N2 C. elegans mitochondria, single replicate, read-out: CI Activity): 119%; Percent in vitro activity, Complex I (single replicate Rep1-Rep4) [2, 14]: 116.806% and 115.361% and 116.592%; activity at 100 µM ([2]; 100 μM of NPD compound, C. elegans mitochondria, individual biological replicates, read-out: Percent in vitro activity, Complex I (single replicate Rep1-Rep4)): 119%; activity at 100 µM ([2]; 100 μM of NPD compound, C. elegans mitochondria, mean of four biological replicates, read-out: Percent in vitro activity, Complex I (Mean)): 117%; activity at 100 µM ([5]; 100 µM compound, relative to solvent control, mean (SEM), read-out: % Activity Complex II): 79.5%; activity at 100 µM ([5]; 100 μM inhibitor, in vitro activity relative to solvent control, N2 C. elegans mitochondria, Mean, read-out: CII Activity): 79.5%; Percent in vitro activity, Complex II (single replicate Rep1-Rep4) [5, 14]: 114.678% and 73.200% and 61.398% and 68.876%; activity at 100 µM ([5]; 100 μM of NPD compound, C. elegans mitochondria, mean of four biological replicates, read-out: Percent in vitro activity, Complex II (Mean)): 79.5%; % Activity Complex III [6, 15]: 0.00 (0.0) %; CIII Activity ([6]; Mean): 0.000%; CIII Activity ([6]; single replicate): 0.000%; Percent in vitro activity, Complex III (single replicate Rep1-Rep4) [6, 16]: 0.000%; Percent in vitro activity, Complex III (Mean) [6, 17]: 0.000%; % Activity Complex IV [7, 15]: 94.00 (1.10) %; CIV Activity ([7]; Mean): 94.002%; CIV Activity ([7]; single replicate): 97.456% and 95.348% and 87.857% and 95.349%; Percent in vitro activity, Complex IV (single replicate Rep1-Rep4) [7, 16]: 97.456% and 95.348% and 87.857% and 95.349%; Percent in vitro activity, Complex IV (Mean) [7, 17]: 94.002%
CCc1ccc(OC(C)c2nc3ccccc3[nH]2)cc1 (centres unmarked) [STK914290]	227	228	71.3	1.85	71.3	Y (hits were identified as compounds that reduced relative motility below 0.25 (75% reduction))	0.082	22.4	–	–
C(=C\c1nc2ccccc2[nH]1)/c1ccccc1 [STK871091]	148	148	–	–	–	Y (hits were identified as compounds that reduced relative motility below 0.25 (75% reduction))	0.008	15	> 75	–
c1ccc2[nH]c(CSc3nc4ccccc4o3)nc2c1 [Compound 5668941]	123	123	19.6	1.29	–	–	–	26.8	19.6	Screen "Hit" ([3]; 50 μM, KCN survival assay, hit = relative motility below 0.25): Y (hits were identified as compounds that reduced relative motility below 0.25 (75% reduction)); Relative Motility ([3]; 50 μM, worm motility 3 hours after the removal of KCN (endpoint)): 0.130
